Test results as given in US10227333B2, “Inhibition of OLIG2 activity” (Curtana Pharmaceuticals, Inc., priority 2015, dated 2019).

Legend:
GBM8 cells = experiment: GBM8 viability assay (Cell Titer Glo luminescence); assay type: cell-based; details: 72 h; human glioblastoma neurosphere cells GBM8, 3 days incubation at 37° C., inhibition of cell growth by Cell Titer Glo luminescence; read-out: FBM8 (IC50)
Description: (§1) Cell culture medium was prepared from a NSA proliferation kit (Neurocult) and NeuroCult supplements (Stemcell Tech Cat. #05751) and treated with 20 μL of 10 μg/mL rh EGF, 10 μL of 10 μg/mL rh bFGF and 10 μL of 0.2% Heparin. In this medium, human glioblastoma cells were cultured in ultra-low attachment tissue culture flasks until 1×10^6 cells ml was achieved (GBM4 and GBM8 are distinct neuro sphere cell cultures derived from these human patient tissues). GBM4 and GBM8 cells were dissociated and 10 mL of media containing 4000 human glioblastoma cells per 90 uL were transferred to an ultra-low binding 96-well plate and incubated at 37° C. overnight. On the following day, 10 μL of a 1% DMSO solution of test compound in assay medium was added to wells containing the cell suspension and the mixture incubated at 37° C. for 3 days. At this time, the plate was removed from the incubator and allowed to reach room temperature. After about 30 minutes, 50 μL of Cell Titer Glo solution was added to each well and the plate shaken for 1 minute at low speed. After 10 minutes luminescence was recorded using a Tecan Safire2 reader.
(§2) Reduction in luminescence compared to DMSO only control wells was used to determine the percentage inhibition of cell growth. IC50s were calculated using the % inhibition of luminescence for serial dilutions of compounds fitted to a 4-parameter fit within the Prism (San Diego) curve fitting program.

GBM4 cells = experiment: GBM4 viability assay (Cell Titer Glo luminescence); assay type: cell-based; details: 72 h; human glioblastoma neurosphere cells GBM4, 3 days incubation at 37° C., inhibition of cell growth by Cell Titer Glo luminescence
Description: as §1, §2

SMILES | IC50 (GBM8 cells) [µM] | IC50 (GBM4 cells) [µM]
CCN1CCCC(Nc2cc(C)nc(NC(=N)Nc3ccc(Cl)c(Cl)c3)n2)C1 (racemic) [Compound 7, (±)-2-[3-(3,4-dichlorophenyl)guanidino]-4-(1-ethyl-3-piperidylamino)-6-methylpyrimidine] | < 10 | < 10
Cc1cc(Oc2ccncc2)nc(NC(=N)Nc2ccc(Cl)c(Cl)c2)n1 [Compound 8, 1-(3,4-dichlorophenyl)-3-[6-methyl-4-(4-pyridyloxy)-2-pyrimidinyl]guanidine] | > 30 | > 30
Cc1cc(NC2CCNCC2)nc(NC(=N)Nc2ccc(Cl)c(Cl)c2)n1 [Compound 9, 2-[3-(3,4-dichlorophenyl)guanidino]-6-methyl-4-(4-piperidylamino)pyrimidine] | > 30 | > 30
Cc1cc(N[C@H]2CCCNC2)nc(NC(=N)Nc2ccc(Cl)c(Cl)c2)n1 [Compound 10, (5)-1-(3,4-dichlorophenyl)-3-(4-methyl-6-(piperidin-3-ylamino)pyrimidin-2-yl)guanidine] | < 10 | < 10
Cc1cc(N[C@@H]2CCCNC2)nc(NC(=N)Nc2ccc(Cl)c(Cl)c2)n1 [Compound 11, (R)-1-(3,4-dichlorophenyl)-3-(4-methyl-6-(piperidin-3-ylamino)pyrimidin-2-yl)guanidine] | < 10 | < 10
CCN1CCC[C@@H](Nc2cc(C)nc(NC(=N)Nc3ccc(Cl)c(Cl)c3)n2)C1 [Compound 12, 4-[(3R)-1-ethyl-3-piperidylamino]-2-[3-(3,4-dichlorophenyl)guanidino]-6-methyl-pyrimidine] | < 10 | < 10
Cc1cc(Oc2cccnc2)nc(NC(=N)Nc2ccc(Cl)c(Cl)c2)n1 [Compound 13, 1-(3,4-dichlorophenyl)-3-[6-methyl-4-(3-pyridyloxy)-2-pyrimidinyl]guanidine] | > 30 | 10 to 30
Cc1cc(Nc2cccnc2)nc(NC(=N)Nc2ccc(Cl)c(Cl)c2)n1 [Compound 14, 2-[3-(3,4-dichlorophenyl)guanidino]-6-methyl-4-(3-pyridylamino)pyrimidine] | < 10 | < 10
Cc1cc(NC2CCCCC2)nc(NC(=N)Nc2ccc(Cl)c(Cl)c2)n1 [Compound 15, 4-(cyclohexylamino)-2-[3-(3,4-dichlorophenyl)guanidino]-6-methylpyrimidine] | < 10 | < 10
Cc1cc(NC2CCOCC2)nc(NC(=N)Nc2ccc(Cl)c(Cl)c2)n1 [Compound 16, 2-[3-(3,4-dichlorophenyl)guanidino]-6-methyl-4-(tetrahydro-2H-pyran-4-ylamino)-pyrimidine] | < 10 | 10 to 30
Cc1cc(OC2CCCNC2)nc(NC(=N)Nc2ccc(Cl)c(Cl)c2)n1 (stereo not drawn) [Compound 17, 1-(3,4-dichlorophenyl)-3-[6-methyl-4-(3-piperidyloxy)-2-pyrimidinyl]guanidine] | < 10 | 10 to 30
CCN1CCCC(Nc2cc(C)nc(NC(=N)N(C)c3ccc(Cl)c(Cl)c3)n2)C1 (stereo not drawn) [Compound 21, 2-[3-(3,4-dichlorophenyl)-3-methylguanidino]-4-[1-ethyl-3-piperidylamino]-6-methylpyrimidine] | > 30 | 10 to 30
CCN1CCC[C@H](Nc2cc(C)nc(NC(=N)Nc3ccc(Cl)c(Cl)c3)n2)C1 [Compound 24, (S)-1-(3,4-dichlorophenyl)-3-(4-(1-ethylpiperidin-3-ylamino)-6-methylpyrimidin-2-yl)guanidine] | < 10 | < 10
CCN1CCC(Oc2cc(C)nc(NC(=N)Nc3ccc(Cl)c(Cl)c3)n2)CC1 [Compound 25, 1-(3,4-dichlorophenyl)-3-[4-(1-ethyl-4-piperidyloxy)-6-methyl-2-pyrimidinyl]-guanidine] | 10 to 30 | 10 to 30
CCN1CCC(Nc2cc(C)nc(NC(=N)Nc3ccc(Cl)c(Cl)c3)n2)CC1 [Compound 26, 2-[3-(3,4-dichlorophenyl)guanidino]-4-(1-ethyl-4-piperidylamino)-6-methylpyrimidine] | < 10 | < 10
Cc1cc(N2CCN(C)CC2)nc(NC(=N)Nc2ccc(Cl)c(Cl)c2)n1 [Compound 27, 1-(3,4-dichlorophenyl)-3-[6-methyl-4-(4-methyl-1-piperazinyl)-2-pyrimidinyl]-guanidine] | < 10 | 10 to 30
Cc1cc(N(C)C)nc(NC(=N)Nc2ccc(Cl)c(Cl)c2)n1 [Compound 28, (N-methyl{2-[3-(3,4-dichlorophenyl)guanidino]-6-methyl-4-pyrimidinyl}amino)-methane] | < 10 | < 10
Cc1cc(N2CCOCC2)nc(NC(=N)Nc2ccc(Cl)c(Cl)c2)n1 [Compound 29, 1-(3,4-dichlorophenyl)-3-(4-methyl-6-morpholino-2-pyrimidinyl)guanidine] | < 10 | < 10
Cc1cc(NCCCN(C)C)nc(NC(=S)Nc2ccc(Cl)c(Cl)c2)n1 [Compound 31a, 1-{2-[3-(3,4-Dichlorophenyl)thioureido]-6-methyl-4-pyrimidinylamino}-3-(dimethylamino)propane] | < 10 | –
Cc1cc(NCCCN(C)C)nc(N/C(=N/C#N)Nc2ccc(Cl)c(Cl)c2)n1 [Compound 32, 1-(3,4-Dichlorophenyl)-3-{4-[3-(dimethylamino)propylamino]-6-methyl-2-pyrimidinyl}-2-guanidinecarbonitrile] | < 10 | –
C/N=C(\Nc1ccc(Cl)c(Cl)c1)Nc1nc(C)cc(NCCCN(C)C)n1 [Compound 33, 1-{2-[3-(3,4-Dichlorophenyl)-2-methylguanidino]-6-methyl-4-pyrimidinylamino}-3-(dimethylamino)propane] | > 30 | –
Cc1cc(NCCCN(C)C)nc(/N=C(/Nc2ccc(Cl)c(Cl)c2)N(C)C)n1 [Compound 34, 1-{2-[3-(3,4-Dichlorophenyl)-1,1-dimethylguanidino]-6-methyl-4-pyrimidinylamino}-3-(dimethylamino)propane] | > 30 | –
C/N=C(\Nc1ccc(Cl)c(Cl)c1)Nc1cc(C)cc(NCCCN(C)C)n1 [Compound 35, 1-{6-[3-(3,4-Dichlorophenyl)-2-methylguanidino]-4-methyl-2-pyridylamino}-3-(dimethylamino)propane] | 10 to 30 | –
Cc1cc(/N=C(/Nc2ccc(Cl)c(Cl)c2)N(C)C)nc(NCCCN(C)C)c1 [Compound 39, 1-{6-[3-(3,4-Dichlorophenyl)-1,1-dimethylguanidino]-4-methyl-2-pyridylamino}-3-(dimethylamino)propane] | > 30 | –
